We go through three molecules from patent US20060292158A1, “Method for the treatment of cancer using a novel pharmaceutical composition containing at least one dolastatin 10 derivative” (priority 2004, published 2006).

Where a name gives a salt, the structure may show the parent alone. Read-outs that look alike come from different tables or passages of the source.

Data set [1] deals with NCI-H460 human large cell lung carcinoma xenograft. Description: Antitumor activity in NCI-H460 subcutaneous xenograft in athymic nude mice, combination with cisplatin (Example 4). The data set is classed as in vivo. The note with it: day 12. The procedure:
The NCI-H460 human large cell lung carcinoma cell line was purchased from American Type Culture Collection (MD, U.S.A.). The cells were cultured in RPMI-1640 medium (cat. # R8758, lot 12K2310, exp 01/03; lot 82K2497, exp 08/03; Sigma-Aldrich corporation, MO, U.S.A.) supplemented with 10% (v/v) fetal bovine serum (cat. # 047115, lot # 31300124; Roche Diagnostics KK, Tokyo, Japan).
Sixty of 5-week-old male athymic nude mice (BALB/c nu/nu) were purchased from Charles River Japan, Inc. (Yokohama, Japan). All mice were kept for 8 days in the animal facility of Kamakura Research Laboratories of Chugai Pharmaceutical Co., Ltd. before subjection to the experiment.
The title compound was synthesized at Kamakura Research Laboratories of Chugai Pharmaceutical Co., Ltd. CDDP (Randa™, lot # 924150) was obtained from Nippon Kayaku Co., Ltd. (Tokyo, Japan). The title compound was dissolved in dimethyl sulfoxide (DMSO) and diluted into 2.5 % DMSO solution with saline (for Injection; Ohtsuka Pharmaceutical Industry Co., Ltd., Tokushima, Japan) at the date of administration. CDDP was diluted with saline at the date of administration.
The in vivo evaluation procedure for anticancer drugs was based on the methods described by Plowman, et al. (1997) for xenograft models. See, “Anticancer Drug Development Guide: Preclinical Screening, Clinical Trials, and Approval, Teicher B (ed) pp. 101-125, specifically Chap. 6, “Human Tumor Xenograft Models in NCI Drug Development”, hereby incorporated by reference. A single cell suspension of NCI-H460 (5.6×10^6 cells per mouse) was inoculated subcutaneously into the right flank of each mouse. The tumor volume was estimated by using the equation ab^2/2, where a and b represent tumor length and width, respectively. Mice bearing tumors of between 150 and 245 mm^3 were selected on day 7 after tumor inoculation and were randomly divided into 8 groups, consisting of 5 mice each. Mean tumor volume and body weight of the selected mice were 187 mm3 and 24.3 g, respectively. Drug administration was initiated after mice were divided into groups. The title compound (2 mg/kg or 3 mg/kg), CDDP (5 mg/kg or 6.7 mg/kg) and each vehicle were administered intravenously. Tumor volume and body weight of each mouse were measured twice a week. […] Tumor growth inhibition was calculated using the equation (1-ΔT/ΔC)×100, where ΔT represents the difference in tumor volume from the initial treatment date of the treated group and ΔC represents the difference in tumor volume from the initial treatment date of the vehicle group.

Data set [2] can be described thus: Maximum tolerated dose (neither lethality nor more than 20% body weight loss) in mice. The note with it: BALB/c nu/nu (athymic nude), mouse, in vivo, dose with neither lethality nor more than 20% body weight loss; for MTD at 14 days: oral. The text has this: The in vivo evaluation procedure for anticancer drugs was based on the methods described by Plowman, et al. (1997) for xenograft models. See, “Anticancer Drug Development Guide: Preclinical Screening, Clinical Trials, and Approval, Teicher B (ed) pp. 101-125, specifically Chap. 6, “Human Tumor Xenograft Models in NCI Drug Development”, hereby incorporated by reference.
See, “Anticancer Drug Development Guide: Preclinical Screening, Clinical Trials, and Approval, Teicher B (ed) pp. 101-125, specifically Chap. 6, “Human Tumor Xenograft Models in NCI Drug Development”, hereby incorporated by reference.
The in vivo evaluation procedure for anticancer drugs was based on the methods described by Plowman, et al. (1997) for xenograft models. See, “Anticancer Drug Development Guide: Preclinical Screening, Clinical Trials, and Approval, Teicher B (ed) pp. 101-125, specifically Chap.

Data set [3] deals with HT-29 human colorectal adenocarcinoma xenograft. It is filed as in vivo. The settings on record: day 31. Here is the method: The HT-29 human colorectal adenocarcinoma cell line was purchased from American Type Culture Collection (Rockville, MD, U.S.A.). The cells were cultured in McCoy's 5a medium (Sigma-Aldrich Corporation, MO, U.S.A.) supplemented with 10% (v/v) fetal bovine serum (Roche Diagnostics KK, Tokyo, Japan).
Sixty of 5-week-old male athymic nude mice (BALB/c nu/nu) were purchased from Charles River Japan, Inc. (Yokohama, Japan). All mice were kept for 9 days in the animal facility of Kamakura Research Laboratories of Chugai Pharmaceutical Co., Ltd. before subjection to the experiment.
Capecitabine was dissolved by the 40 milli mol/L citrate buffered-5% Gum arabic solution (pH 6.0; Chugai Pharmaceutical Co., Ltd.).
The in vivo evaluation procedure for anticancer drugs was based on the methods described by Plowman, et al. (1997) for xenograft models. See, “Anticancer Drug Development Guide: Preclinical Screening, Clinical Trials, and Approval, Teicher B (ed) pp. 101-125, specifically Chap. 6, “Human Tumor Xenograft Models in NCI Drug Development”, hereby incorporated by reference. A single cell suspension of HT-29 (1.1×10^7 cells per mouse) was inoculated subcutaneously into the right flank of each mouse. The tumor volume was estimated by using the equation ab^2/2, where a and b represent tumor length and width, respectively. Mice bearing tumors of between 172 and 282 mm^3 were selected on day 10 after tumor inoculation and were randomly divided into 7 groups, consisting of 6 mice each. Mean tumor volume and body weight of the selected mice were 217 mm^3 and 25.0 g respectively. Drug administration was initiated after mice were divided into groups. […] Capecitabine (359 mg/kg or 539 mg/kg) and its vehicle were administered orally. Tumor volume and body weight of each mouse were measured twice a week. […] Tumor growth inhibition was calculated using the equation (1-ΔT/ΔC)×100, where ΔT represents the difference in tumor volume from the initial treatment date of the treated group and ΔC represents the difference in tumor volume from the initial treatment date of the vehicle group.

The subject of data set [4] is Calu-6 human lung cancer xenograft. It is filed as in vivo. The note with it: 80 mg/kg (2/3 MTD) i.v. weekly x2; day 32. The procedure: The Calu-6 human lung carcinoma cell line was purchased from American Type Culture Collection (MD, U.S.A.). The cells were cultured in Eagle's MEM (Sigma-Aldrich corporation, MO, U.S.A.) supplemented with 0.1 milli mol/L Non-essential amino acids (Invitrogen corporation, CA, U.S.A.), 1 milli mol/L sodium pyruvate (Invitrogen corporation, CA, U.S.A.), and 10% (v/v) fetal bovine serum (Roche Diagnostics KK, Tokyo, Japan).
60 of 5-week-old male athymic nude mice (BALB/c nu/nu) were purchased from Charles River Japan, Inc. (Yokohama, Japan). All mice were kept for 8 days in the animal facility of Kamakura Research Laboratories of Chugai Pharmaceutical Co., Ltd. before subjection to the experiment.
The title compound was synthesized at Kamakura Research Laboratories of Chugai Pharmaceutical Co., Ltd. Irinotecan (Topotecin™, lot. No. EQAZF13) was obtained from Daiichi Pharmaceutical Co., Ltd. (Tokyo, Japan). The title compound was dissolved in dimethyl sulfoxide (DMSO) and diluted into 2.5 % DMSO solution with saline (For Injection; Ohtsuka Pharmaceutical Industry Co., Ltd., Tokushima, Japan) at the date of administration. Irinotecan was diluted with saline at the date of administration.
The in vivo evaluation procedure for anticancer drugs was based on the methods described by Plowman, et al. (1997) for xenograft models. See, “Anticancer Drug Development Guide: Preclinical Screening, Clinical Trials, and Approval, Teicher B (ed) pp. 101-125, specifically Chap. 6, “Human Tumor Xenograft Models in NCI Drug Development”, hereby incorporated by reference. A single cell suspension of Calu-6 (5.7×10^6 cells per mouse) was inoculated subcutaneously into the right flank of each mouse. The tumor volume was estimated by using the equation ab^2/2, where a and b represent tumor length and width, respectively. Mice bearing tumors of between 181 and 326 mm^3 were selected on day 11 after tumor inoculation and were randomly divided into 10 groups, consisting of 5 mice each. […] Drug administration was initiated after mice were randomized and divided into groups. The tide compound (0.375 mg/kg; 0.75 mg/kg; 1.5 mg/kg or 3 mg/kg), irinotecan (80 mg/kg) and each vehicles were administered intravenously. Tumor volume and body weight of each mouse were measured twice a week. […] Tumor growth inhibition was calculated by using the equation (1-ΔT/ΔC)×100, where ΔT represents the tumor volume difference from the initial treatment date of treated group and ΔC represents the tumor volume difference from the initial treatment date of vehicle group.

Turning to `N.N.[Cl][Pt][Cl]` [CDDP, cis-diamminedichloroplatinum, reference compound], the entries for the “reduction of tumor growth” value in data set [1] (5 mg/kg (1/2 MTD) i.v. on first day) and in data set [1] (6.7 mg/kg (2/3 MTD) i.v. on first day) were 56% and 66%, respectively.
Consider `CCCCCOC(=O)Nc1nc(=O)n([C@@H]2O[C@H](C)[C@@H](O)[C@H]2O)cc1F` [capecitabine, reference compound], for which the values for the MTD at 14 days in data set [2] (359 mg/kg) and in data set [2] were 359 mg/kg and 539 mg/kg, respectively. The “reduction of tumor growth” value in data set [3] (359 mg/kg (2/3 MTD) p.o. daily for 14 days) was 32%; in data set [3] (539 mg/kg (MTD) p.o. daily for 14 days), 50%.
Molecule `CCc1c2c(nc3ccc(OC(=O)N4CCC(N5CCCCC5)CC4)cc13)-c1cc3c(c(=O)n1C2)COC(=O)[C@]3(O)CC` [irinotecan, irinotecan hydrochloride, reference compound] gave a maximum tolerated dose (MTD) in data set [2] of 120 mg/kg. In data set [4], this molecule showed a tumor growth inhibition of 68%.

As usually defined, the MTD is the highest dose tested that stayed within the study's limit of toxicity.
